Measurements as given in PubChem BioAssay AID248 (DTP/NCI, 2004).
Several values for one entry are separate records, joined by “and”; a condition that tells them apart may be missing. Equal entries are not always repeated. Toxic doses and inconclusive results are not listed. Cut-off read from the data, not from the text of the source: active = T/C of 150% or more; inactive = T/C below 125%.

Tested on: L1210 leukemia ip in BDF1 mice, survival T/C
Experiment: NCI In Vivo Anticancer Drug Screen. Data for tumor model L1210 Leukemia (intraperitoneal) in B6D2F1 (BDF1) mice
Details: endpoint: mean survival time, higher = longer survival
In short: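 Ratio derived from survival: compound-dosed mice over vehicle-dosed mice, all bearing a transplantable tumor.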

[1] = dose: 100.0 mg/kg/injection, schedule: Q01DX009 (ip), vehicle: Klucel (hydroxypropylcellulose) (HPC)
[2] = dose: 200.0 mg/kg/injection, schedule: Q01DX009 (ip), vehicle: Klucel (hydroxypropylcellulose) (HPC)
[3] = dose: 400.0 mg/kg/injection, schedule: Q01DX009 (ip), vehicle: Klucel (hydroxypropylcellulose) (HPC)
[4] = dose: 100.0 mg/kg/injection, schedule: Q04DX003 (ip), vehicle: Klucel (hydroxypropylcellulose) (HPC)
[5] = dose: 200.0 mg/kg/injection, schedule: Q04DX003 (ip), vehicle: Klucel (hydroxypropylcellulose) (HPC)
[6] = dose: 400.0 mg/kg/injection, schedule: Q04DX003 (ip), vehicle: Klucel (hydroxypropylcellulose) (HPC)
[7] = dose: 50.0 mg/kg/injection, schedule: Q01DX009 (ip), vehicle: saline with Tween-80
[8] = dose: 100.0 mg/kg/injection, schedule: Q01DX009 (ip), vehicle: saline with Tween-80
[9] = dose: 200.0 mg/kg/injection, schedule: Q01DX009 (ip), vehicle: saline with Tween-80
[10] = dose: 100.0 mg/kg/injection, schedule: Q04DX002 (ip), vehicle: Klucel (hydroxypropylcellulose) (HPC)
[11] = dose: 200.0 mg/kg/injection, schedule: Q04DX002 (ip), vehicle: Klucel (hydroxypropylcellulose) (HPC)

Measured: T/C

CCCCCCCCCC(=O)CCCCCCC
inactive: dose: 25.0 mg/kg/injection, schedule: Q01DX009 (ip), vehicle: other 105 % of control | dose: 50.0 mg/kg/injection, schedule: Q01DX009 (ip), vehicle: other 102 % of control | dose: 100.0 mg/kg/injection, schedule: Q01DX009 (ip), vehicle: other 95 % of control and 97 % of control | dose: 400.0 mg/kg/injection, schedule: Q01DX009 (ip), vehicle: other 98 % of control

CN(O)C(=O)OC(C)(C)C
inactive: dose: 100.0 mg/kg/injection, schedule: Q01DX001 (ip), vehicle: other 108 % of control | dose: 200.0 mg/kg/injection, schedule: Q01DX001 (ip), vehicle: other 108 % of control | dose: 400.0 mg/kg/injection, schedule: Q01DX001 (ip), vehicle: other 114 % of control

N#CCCN(C(=O)Nc1cccc(Cl)c1)C1CCCCC1
inactive: [1] 103 % of control | [2] 90 % of control | [3] 97 % of control

O=C(CCCl)NC(Cc1ccccc1)c1ccccc1 (stereo unspecified)
inactive: [1] 102 % of control | [4] 96 % of control | [2] 92 % of control | [5] 98 % of control | [3] 92 % of control | [6] 95 % of control

CC/C(=C\c1ccc2ccccc2c1)[N+](=O)[O-]
inactive: dose: 75.0 mg/kg/injection, schedule: Q01DX001 (ip), vehicle: saline 97 % of control | dose: 150.0 mg/kg/injection, schedule: Q01DX001 (ip), vehicle: saline 103 % of control

CC(=O)OC1CC2CC1C1C=CCC21 (stereo unspecified)
inactive: [7] 88 % of control | [8] 86 % of control | dose: 100.0 mg/kg/injection, schedule: Q04DX003 (ip), vehicle: saline sonified 94 % of control | dose: 200.0 mg/kg/injection, schedule: Q04DX003 (ip), vehicle: saline sonified 89 % of control

CCCCOc1ccc(C(=O)NN)cc1
inactive: dose: 25.0 mg/kg/injection, schedule: Q01DX009 (ip), vehicle: saline with Tween-80 93 % of control | [7] 102 % of control | [8] 88 % of control

O=C(CNC(=O)Nc1ccc(Cl)c(Cl)c1)N/N=C/c1ccc(F)cc1
inactive: [8] 98 % of control | [9] 96 % of control | dose: 400.0 mg/kg/injection, schedule: Q01DX009 (ip), vehicle: saline with Tween-80 98 % of control

On1cnc(=S)c2[nH]cnc21
inactive: dose: 100.0 mg/kg/injection, schedule: Q01DX001 (ip), vehicle: carboxymethylcellulose (CMC) 98 % of control | dose: 200.0 mg/kg/injection, schedule: Q01DX001 (ip), vehicle: carboxymethylcellulose (CMC) 98 % of control | dose: 250.0 mg/kg/injection, schedule: Q01DX Z (ip), vehicle: carboxymethylcellulose (CMC) 112 % of control | dose: 400.0 mg/kg/injection, schedule: Q01DX001 (ip), vehicle: carboxymethylcellulose (CMC) 98 % of control | dose: 500.0 mg/kg/injection, schedule: Q01DX001 (ip), vehicle: carboxymethylcellulose (CMC) 100 % of control | dose: 750.0 mg/kg/injection, schedule: Q01DX001 (ip), vehicle: carboxymethylcellulose (CMC) 113 % of control | dose: 1000.0 mg/kg/injection, schedule: Q01DX001 (ip), vehicle: carboxymethylcellulose (CMC) 117 % of control
active: dose: 750.0 mg/kg/injection, schedule: Q01DX Z (ip), vehicle: carboxymethylcellulose (CMC) 156 % of control

CC1CN(Cl)C(=O)N(Cl)C1=O (stereo unspecified)
inactive: dose: 10.0 mg/kg/injection, schedule: Q01DX001 (ip), vehicle: saline 96 % of control | dose: 20.0 mg/kg/injection, schedule: Q01DX001 (ip), vehicle: saline 98 % of control | dose: 40.0 mg/kg/injection, schedule: Q01DX001 (ip), vehicle: saline 92 % of control

Cc1cccc(NC(=O)Nc2cccc(C(F)(F)F)c2)n1
inactive: dose: 100.0 mg/kg/injection, schedule: Q01DX009 (ip), vehicle: gum acacia 92 % of control | dose: 200.0 mg/kg/injection, schedule: Q01DX009 (ip), vehicle: gum acacia 87 % of control | dose: 400.0 mg/kg/injection, schedule: Q01DX009 (ip), vehicle: gum acacia 89 % of control

CCOC(=O)c1ccc(NC(=S)NC(=O)c2cccc([N+](=O)[O-])c2)cc1
inactive: dose: 50.0 mg/kg/injection, schedule: Q01DX001 (ip), vehicle: saline with Tween-80 88 % of control | dose: 100.0 mg/kg/injection, schedule: Q01DX001 (ip), vehicle: saline with Tween-80 88 % of control | dose: 100.0 mg/kg/injection, schedule: Q01DX009 (ip), vehicle: saline 99 % of control and 86 % of control | dose: 100.0 mg/kg/injection, schedule: Q04DX002 (ip), vehicle: alcohol 93 % of control | dose: 100.0 mg/kg/injection, schedule: Q04DX003 (ip), vehicle: saline with Tween-80 105 % of control | dose: 200.0 mg/kg/injection, schedule: Q01DX001 (ip), vehicle: saline with Tween-80 104 % of control and 87 % of control | dose: 200.0 mg/kg/injection, schedule: Q01DX009 (ip), vehicle: saline 93 % of control and 101 % of control | dose: 200.0 mg/kg/injection, schedule: Q04DX002 (ip), vehicle: alcohol 90 % of control | dose: 200.0 mg/kg/injection, schedule: Q04DX003 (ip), vehicle: saline with Tween-80 97 % of control | dose: 400.0 mg/kg/injection, schedule: Q01DX001 (ip), vehicle: saline with Tween-80 106 % of control | dose: 400.0 mg/kg/injection, schedule: Q04DX002 (ip), vehicle: alcohol 90 % of control | dose: 400.0 mg/kg/injection, schedule: Q04DX003 (ip), vehicle: saline with Tween-80 95 % of control

Nc1nc(N)c(NC/C=C\c2ccc([N+](=O)[O-])cc2)c(-c2ccccc2)n1
inactive: dose: 50.0 mg/kg/injection, schedule: Q01DX001 (ip), vehicle: saline 91 % of control | dose: 100.0 mg/kg/injection, schedule: Q01DX001 (ip), vehicle: saline 97 % of control | dose: 200.0 mg/kg/injection, schedule: Q01DX001 (ip), vehicle: saline 103 % of control | dose: 400.0 mg/kg/injection, schedule: Q01DX001 (ip), vehicle: saline 109 % of control

CCS(=O)(=O)/C=C/c1ccc2ccccc2n1
inactive: [10] 104 % of control | [11] 100 % of control

N#C[S-].N#C[S-].[Au+3].[Au+3].[CH3-].[CH3-].[CH3-].[CH3-]
inactive: [7] 96 % of control | [8] 109 % of control | [9] 105 % of control

O=C(/C=C/c1ccccc1)c1ccccc1
inactive: dose: 100.0 mg/kg/injection, schedule: Q01DX001 (ip), vehicle: Klucel (hydroxypropylcellulose) (HPC) 98 % of control | [10] 105 % of control | [4] 100 % of control | dose: 200.0 mg/kg/injection, schedule: Q01DX001 (ip), vehicle: Klucel (hydroxypropylcellulose) (HPC) 99 % of control | [11] 105 % of control | [5] 104 % of control | dose: 400.0 mg/kg/injection, schedule: Q01DX001 (ip), vehicle: Klucel (hydroxypropylcellulose) (HPC) 94 % of control | dose: 400.0 mg/kg/injection, schedule: Q04DX002 (ip), vehicle: Klucel (hydroxypropylcellulose) (HPC) 94 % of control | [6] 98 % of control

CCC[Si](Cl)(CCC)CCC
inactive: dose: 18.75 mg/kg/injection, schedule: Q01DX009 (ip), vehicle: acetone 98 % of control | dose: 37.5 mg/kg/injection, schedule: Q01DX009 (ip), vehicle: acetone 94 % of control | dose: 37.5 mg/kg/injection, schedule: Q04DX003 (ip), vehicle: acetone 99 % of control | dose: 75.0 mg/kg/injection, schedule: Q01DX001 (ip), vehicle: acetone 93 % of control | dose: 75.0 mg/kg/injection, schedule: Q01DX009 (ip), vehicle: acetone 96 % of control | dose: 75.0 mg/kg/injection, schedule: Q04DX003 (ip), vehicle: acetone 94 % of control | dose: 150.0 mg/kg/injection, schedule: Q01DX001 (ip), vehicle: acetone 101 % of control | dose: 150.0 mg/kg/injection, schedule: Q04DX003 (ip), vehicle: acetone 100 % of control | dose: 300.0 mg/kg/injection, schedule: Q01DX001 (ip), vehicle: acetone 86 % of control
